{"source": "patent US20120190615A1", "about": "“METHODS AND COMPOSITIONS FOR INDUCING WEIGHT LOSS” (Sanford-Burnham Medical Research Institute, priority 2011, published 2012)", "key": {"obese wild type B6 mice": {"system": "obese wild type B6 mice", "experiment": "Reversal of diet-induced obesity, OX twice weekly for 4 wks after 17 weeks HFD (Example 13)", "assay_type": "in vivo", "protocol": "To confirm that systemic OX therapy induces weight loss in obese mice, wild type B6 mice were fed a HFD for 17 weeks and treated either with OX (10 mg/kg) or PBS vehicle twice weekly for 4 wks (n=6 mice/group). […] The OX-injected group began losing body weight from week 1. At the end of the 4-week treatment regimen, the OX-injected population appeared considerably leaner than the vehicle-injected controls, and the former had lost about 10 g body weight, as shown in FIG. 29A. […] Enhancement of energy expenditure was not due to any increase in physical activity (FIG. 29C).\nTo evaluate changes associated with weight loss, OX-treated and untreated mice were compared at autopsy. Untreated mice fed a high fat diet had developed fatty livers, which were visibly paler in color than those from OX-treated mice (FIG. 29E)."}, "HIB1 cells": {"system": "HIB1 cells", "experiment": "Differentiation of HIB1 brown preadipocytes (lipid accumulation, mitochondrial biogenesis)", "assay_type": "cell-based", "conditions": "24 hours, absence of standard induction cocktail", "protocol": "To further investigate the role of OX in BAT differentiation, the effect of OX on the preadipocyte cell line HIB1 was evaluated. […] Expression of genes functioning in lipid metabolism and mitochondrial biogenesis was elevated while the anti-adipogenic factors […], Pref1, and Wnt10 were expressed at very low levels (FIG. 16).\nHIB1 cells were stably transfected with lentivirus over-expressing orexin (Len-OX) and compared to vector controls in the absence or presence of exogenous OX (100 nM), Cells were cultured for 7 days in the absence of differentiation medium and stained with Oil Red O. By day 6 of adipogenic differentiation, orexin-expressing cells had undergone normal BAT differentiation as scored by lipid accumulation.\nBrown fat morphological defects seen in both adult and newborn OXR1 KO mice were similar to those observed in OX KO mice. […] To examine the cellular and molecular consequences of OXR1 depletion, lentiviral vectors were used to express a short hairpin (sh) shRNA targeting OXR1 (shOXR1; Open Biosystems, Inc., catalog no. RMM4431-98766481) or a scrambled shRNA control (Open Biosystems, Inc., catalog no. RHS4346) in HIB1 mesenchymal cells. […] After 5 days of differentiation, cultures expressing the scrambled shRNA control had undergone brown fat differentiation as scored by Oil Red O staining and shown in FIG. 18. […]"}, "BMP signaling": {"system": "BMP signaling", "experiment": "BMP signaling in C3H10T1/2 cells (qPCR of Bmpr1a and BMP-7, Smad 1/5/8 phosphorylation)", "assay_type": "cell-based, mouse", "conditions": "100 nM OX 3 days", "description": "Bone morphogenic proteins, which are members of the TGF-β superfamily, control critical steps in development and differentiation and are important regulators of both WAT and BAT adipogenesis. BMP-2 and -4 induce white fat adipogenesis, while BMP-7 enhances brown fat traits. BMP-7 functions through interacting with BMP receptors, which mediate Smad 1/5/8 phosphorylation, to stimulate brown fat adipogenesis."}, "[1]": {"system": "Mouse embryonic fibroblasts (MEFs)", "experiment": "Differentiation of mouse embryonic fibroblasts to a BAT lineage", "assay_type": "cell-based", "conditions": "3-day treatment, 7-10 days without induction cocktail, Oil Red O", "description": "Mouse embryonic fibroblasts (MEFs) resemble mesenchymal cells in their ability to differentiate into various mesenchymal lineages. To determine whether OX triggers commitment of embryonic fibroblasts to a BAT lineage, MEFs isolated at […] were exposed to a differentiation protocol involving a 3-day treatment with Orexin A and BMP-7, and differentiation in the absence of the standard induction cocktail of IBMX, thiazolidone, and indomethacin for a further 7-10 days."}, "[2]": {"system": "primary brown preadipocytes", "experiment": "Differentiation of primary brown preadipocytes (Oil Red O)", "assay_type": "cell-based, mice", "description": "To assess differentiation of primary brown adipocytes, iBAT preadipocytes were isolated from 1-day-old mice and then differentiated in the presence of OX. Differentiation was confirmed by Oil Red O staining which visualizes lipid accumulation (FIG. 7). […] Taken together. OX activates a full program of brown fat adipogenesis by suppressing adipogenic inhibitors, including BAT regulators, elevating mitochondrial biogenesis and oxygen consumption, and inducing uncoupled respiration.\nTo investigate whether lack of OXR1 impaired BAT differentiation potential, primary brown preadipocytes from OXR1 knockout mice were isolated and differentiated. Generation of wild-type primary brown preadipocyte cell lines was derived from newborn wild-type mice as described previously by Klein et al. (Bioessays, 24: 382-388, 2002), which is hereby incorporated by reference in its entirety. Brown preadipocytes isolated from C57BL-6 mice served as positive control. All cell lines were maintained in Dulbecco's modified […] medium (DMEM), high glucose, supplemented with 10% FBS at 37° C. in a 5% CO2 environment. To induce adipogenesis, the cells were treated for 3 days with either BMP7 or 100 nM OX, at which time they were confluent. Cells were then incubated in adipogenic medium containing 0.125 mM indomethaein, […] dexamethazone, and […] 3-isobutyl-1-methyxanthine (IBMX) supplemented by 20 nM insulin as described by Tseng et al., (Nature, 454: 1000-1004, 2008) which is hereby incorporated by reference in its entirety."}, "[3]": {"conditions": "end of 4-week treatment, OX 10 mg/kg twice weekly"}}, "note": "Several values for one entry are separate records, joined by “and”; a condition that tells them apart may be missing. Equal values may be shown once.", "data": [{"substance": "orexin-A (EPLPDCCRQKTCSCRLYELLHGAGNHAAGILTL) [OX, human orexin A, cat; No. 24470, Anaspec]", "values": [{"measurement": "amount of visceral fat", "setting": "obese wild type B6 mice; 4 weeks treatment", "result": "considerably decreased"}, {"measurement": "food intake", "setting": "obese wild type B6 mice; between groups", "result": "did not differ significantly"}, {"measurement": "lean mass or fluid content", "setting": "obese wild type B6 mice; between groups", "result": "not significantly different"}, {"measurement": "energy expended, more than the control group", "setting": "obese wild type B6 mice; calorimetric studies", "result": 17, "unit": "%"}, {"measurement": "oxygen consumed, more than the control group", "setting": "obese wild type B6 mice; calorimetric studies", "result": 13, "unit": "%"}, {"measurement": "body weight lost", "setting": "obese wild type B6 mice; end of 4-week treatment", "result": "about 10 g"}, {"measurement": "% body fat", "setting": "obese wild type B6 mice; [3]", "result": "27% and 27 ± 1.4%"}, {"measurement": "Fat mass", "setting": "obese wild type B6 mice; [3]", "result": "7.9 ± 0.6"}, {"measurement": "Lean mass", "setting": "obese wild type B6 mice; [3]", "result": "20.4 ± 1.3"}, {"measurement": "Lean mass fat mass ratio", "setting": "obese wild type B6 mice; [3]", "result": "2.58 ± 0.2"}, {"measurement": "Body weight", "setting": "obese wild type B6 mice; end of 4-week treatment, OX 10 mg/kg twice weekly, in g (unit assumed)", "result": "29.2 ± 0.8"}, {"measurement": "reduction of whole body fat mass", "setting": "obese wild type B6 mice; end of the study", "result": 55, "unit": "%"}, {"measurement": "triglycerides within the liver", "setting": "obese wild type B6 mice; high fat diet, at autopsy", "result": "91 ± 7", "unit": "µmol/g"}, {"measurement": "iBAT mitochondrial content/activity", "setting": "obese wild type B6 mice; mitoTracker-stained iBAT sections, relative to controls", "result": "elevated mitochondrial content/activity"}, {"measurement": "lipid accumulation and mitochondrial biogenesis", "setting": "HIB1 cells", "result": "induced extensive lipid accumulation and mitochondrial biogenesis"}, {"measurement": "BMP-receptor 1A and BMP-7 mRNA expression", "setting": "BMP signaling", "result": "induced"}, {"measurement": "phenotype of treated MEFs", "setting": "[1]", "result": "adopted a BAT phenotype"}, {"measurement": "differentiation of wild-type preadipocytes based on lipid accumulation", "setting": "[2]; 3 days BMP7 or 100 nM OX, then adipogenic medium", "result": "enhanced differentiation"}, {"measurement": "adipogenesis of iBAT preadipocytes from 1-day-old mice", "setting": "[2]; differentiated in the presence of OX", "result": "robust adipogenesis within 7 days"}, {"measurement": "differentiation of brown preadipocytes from OXR1-null mice", "setting": "[2]; in the presence of OX", "result": "little differentiation capacity"}]}]}
